# According to patent US7604978B2, “Inhibition of biofilm formation” (Sequoia Sciences, Inc., priority 2004, dated 2009):
# Columns and labels:
# E. coli JM109 genes = experiment: DNA microarray, genes induced by asiatic acid; format: cell-based; details: M9C glucose media
# Protocol: The same amount of ethanol was supplemented to eliminate solvent effects. The cultures were grown to an OD600 of 0.9. The cells were centrifuged in a microcentrifuge for 15 seconds at 20,000×g in mini bead beater tubes (Biospec, Bartlesville, Okla.) that were cooled to -80° C. before sampling. The cell pellets were flash frozen in a dry ice-ethanol bath and stored at -80° C. until RNA isolation. To lyse the cells, 1.0 mL RLT buffer (Qiagen, Inc., Valencia, Calif.) and 0.2 mL 0.1 mm zirconia/silica beads (Biospec) were added to the frozen bead beater tubes containing the cell pellets. The tubes were closed tightly and beat for 30 seconds at the maximum speed in a mini bead beater (cat. no. 3110BX, Biospec). The total RNA was isolated by following the protocol of the RNeasy Mini Kit (Qiagen) including an on-column DNase digestion with RNase-free DNase I (Qiagen). OD260 was used to quantify the RNA yield. OD260/OD280 and […]/16S rRNA were measured using a 2100 Bioanalyzer (Agilent Technologies, Palo Alto, Calif.) to check the purity and integrity of RNA (RNeasy Mini handbook, Qiagen). The E. coli DNA microarrays were prepared as described previously by Wei, Y. et al (Journal of Bacteriology, 2001, 183 (2) p. 545-556). […] The double-strand PCR products were denatured in 50% dimethyl sulfoxide and spotted onto aminosilane slides (Full Moon Biosystems, Sunnyvale, Calif.) as probes to hybridize with the mRNA-derived cDNA samples. It has been shown that each array can detect 4228 of the 4290 E. coli ORFs. Each gene has two spots per slide. Briefly, the total RNA from the E. coli K12 samples grown with and without ursolic acid was first converted into labeled cDNA. […] The Cy3-labeled sample without ursolic acid and the Cy5-labeled ursolic acid sample (with 10 or 30 μg/mL ursolic acid) were hybridized on the first slide. Similarly, the Cy5-labeled sample without ursolic acid and the Cy3-labeled ursolic acid sample were hybridized on the second slide. Since each gene has two spots on a slide, the two hybridizations generated eight data points for each gene (four points for the sample without ursolic acid and four points for the ursolic acid sample). The microarray experiments with dye-swapping were repeated for both concentrations of ursolic acid. […] The arrays were rinsed with double-distilled water and were spun dry by centrifugation. Labeled cDNA (6 μg) was concentrated to 10 μl of total volume and was mixed with 10 μl of 4×cDNA hybridization solution (Full Moon Biosystems) and 20 μl of formamide (EM Science, Gibbstown, N.J.). The hybridization mix was heated to 95° C. for 2 min and was added to the DNA microarrays; each array was covered with a coverslip (Corning, Big Flats, N.Y.) and was incubated overnight at 37° C. for hybridization. When the hybridization was finished, the coverslips were removed in 1×SSC-0.1% SDS at room temperature, and the arrays were washed once for 5 min in 1×SSC-0.1% SDS at 40° C., twice for 10 min in 0.1×SSC-0.1% SDS at 40° C., and twice for 1 min in 0.1×SSC at 40° C. The arrays were quickly rinsed by dipping in room-temperature double-distilled water and were then spun dry by centrifugation. The hybridized slides were scanned with the Generation III Array Scanner (Molecular Dynamics Corp.). Readings at 570 and 670 nm was used to quantify the probes labeled with Cy3 and Cy5 separately. The signal was quantified with Array Vision 4.0 or 6.0 software (Imaging Research, St. Catherines, Ontario, Canada). […] P-values were calculated on log-transformed, normalized intensities. Including the p-value criterion ensures the reliability of the induced/repressed gene list. Normalization was relative to the median total fluorescent intensity per slide per channel. Example 3 was repeated, except asiatic acid ([…]) was added instead of ursolic acid.
# E. coli JM109 = experiment: Biofilm inhibition by asiatic acid; format: cell-based; details: Escherichia coli, JM 109, E. coli JM109, MC9 glucose media
# Protocol: Inhibition of biofilm formation by E. coli K12 [R1drd19], P. aeruginosa PAO1, and V harveyi BB120 by the addition of 10 μg/mL ursolic acid. For E. coli K12 [R1drd19], data were collected 16 hours after addition of ursolic acid to a 24 hour biofilm in LB medium; for P. aeruginosa PAO1, data were collected 18 hours after addition of ursolic acid with inoculation in LB medium plus 1% sodium citrate; and for V. harveyi BB120, data were collected 18 hours after addition of ursolic acid with inoculation in M9 medium. All biofilm mass readings at OD540 were normalized based on the reading of wild type without ursolic acid which was normalized to 1. One standard deviation is shown.
# Example 1 was repeated, except asiatic acid was added with inoculation in E. coli JM109 in MC9 glucose media.
compound,measurement,setting,value
C[C@H]1[C@H](C)CC[C@]2(C(=O)O)CC[C@]3(C)C(=CC[C@@H]4[C@@]5(C)C[C@@H](O)[C@H](O)[C@@](C)(CO)[C@@H]5CC[C@]43C)[C@H]12 [asiatic acid],ER (expression ratio) gene b0829,E. coli JM109 genes; 10 μg/mL asiatic acid,2.83
same,ER (expression ratio) gene b1729,E. coli JM109 genes; 10 μg/mL asiatic acid,2.64
same,ER (expression ratio) gene b1963,E. coli JM109 genes; 10 μg/mL asiatic acid,2.14
same,ER (expression ratio) gene b2332,E. coli JM109 genes; 10 μg/mL asiatic acid,2.14
same,ER (expression ratio) gene b2420,E. coli JM109 genes; 10 μg/mL asiatic acid,4.29
same,ER (expression ratio) gene b2531,E. coli JM109 genes; 10 μg/mL asiatic acid,2.46
same,ER (expression ratio) gene b2670,E. coli JM109 genes; 10 μg/mL asiatic acid,3.25
same,ER (expression ratio) gene b2834,E. coli JM109 genes; 10 μg/mL asiatic acid,2.30
same,ER (expression ratio) gene bolA,E. coli JM109 genes; 10 μg/mL asiatic acid,2.30
same,ER (expression ratio) gene cbl,E. coli JM109 genes; 10 μg/mL asiatic acid,13.93
same,ER (expression ratio) gene cysA,E. coli JM109 genes; 10 μg/mL asiatic acid,4.00
same,ER (expression ratio) gene cysB,E. coli JM109 genes; 10 μg/mL asiatic acid,6.06
same,ER (expression ratio) gene cysC,E. coli JM109 genes; 10 μg/mL asiatic acid,10.56
same,ER (expression ratio) gene cysD,E. coli JM109 genes; 10 μg/mL asiatic acid,6.96
same,ER (expression ratio) gene cysH,E. coli JM109 genes; 10 μg/mL asiatic acid,4.59
same,ER (expression ratio) gene cysI,E. coli JM109 genes; 10 μg/mL asiatic acid,4.29
same,ER (expression ratio) gene cysJ,E. coli JM109 genes; 10 μg/mL asiatic acid,3.73
same,ER (expression ratio) gene cysK,E. coli JM109 genes; 10 μg/mL asiatic acid,4.59
same,ER (expression ratio) gene cysM,E. coli JM109 genes; 10 μg/mL asiatic acid,3.73
same,ER (expression ratio) gene cysN,E. coli JM109 genes; 10 μg/mL asiatic acid,11.31
same,ER (expression ratio) gene cysP,E. coli JM109 genes; 10 μg/mL asiatic acid,4.29
same,ER (expression ratio) gene cysU,E. coli JM109 genes; 10 μg/mL asiatic acid,4.92
same,ER (expression ratio) gene cysW,E. coli JM109 genes; 10 μg/mL asiatic acid,4.59
same,ER (expression ratio) gene dgt,E. coli JM109 genes; 10 μg/mL asiatic acid,2.14
same,ER (expression ratio) gene fliY,E. coli JM109 genes; 10 μg/mL asiatic acid,4.00
same,ER (expression ratio) gene ftn,E. coli JM109 genes; 10 μg/mL asiatic acid,3.25
same,ER (expression ratio) gene glgS,E. coli JM109 genes; 10 μg/mL asiatic acid,2.14
same,ER (expression ratio) gene iIvG_1,E. coli JM109 genes; 10 μg/mL asiatic acid,2.83
same,ER (expression ratio) gene iIvL,E. coli JM109 genes; 10 μg/mL asiatic acid,2.30
same,ER (expression ratio) gene msrA,E. coli JM109 genes; 10 μg/mL asiatic acid,2.30
same,ER (expression ratio) gene nlpA,E. coli JM109 genes; 10 μg/mL asiatic acid,18.38
same,ER (expression ratio) gene pssR,E. coli JM109 genes; 10 μg/mL asiatic acid,2.46
same,ER (expression ratio) gene pstS,E. coli JM109 genes; 10 μg/mL asiatic acid,2.64
same,ER (expression ratio) gene sbp,E. coli JM109 genes; 10 μg/mL asiatic acid,18.38
same,ER (expression ratio) gene tauA,E. coli JM109 genes; 10 μg/mL asiatic acid,2.46
same,ER (expression ratio) gene yaeG,E. coli JM109 genes; 10 μg/mL asiatic acid,4.59
same,ER (expression ratio) gene yaiB,E. coli JM109 genes; 10 μg/mL asiatic acid,2.30
same,ER (expression ratio) gene ybgR,E. coli JM109 genes; 10 μg/mL asiatic acid,2.46
same,ER (expression ratio) gene ybiK,E. coli JM109 genes; 10 μg/mL asiatic acid,6.50
same,ER (expression ratio) gene yciW,E. coli JM109 genes; 10 μg/mL asiatic acid,3.03
same,ER (expression ratio) gene yedO,E. coli JM109 genes; 10 μg/mL asiatic acid,3.73
same,ER (expression ratio) gene yeeD,E. coli JM109 genes; 10 μg/mL asiatic acid,3.73
same,ER (expression ratio) gene yeeE,E. coli JM109 genes; 10 μg/mL asiatic acid,3.25
same,ER (expression ratio) gene ygbE,E. coli JM109 genes; 10 μg/mL asiatic acid,6.96
same,ER (expression ratio) gene yicG,E. coli JM109 genes; 10 μg/mL asiatic acid,2.83
same,ER (expression ratio) gene yicL,E. coli JM109 genes; 10 μg/mL asiatic acid,6.50
same,ER (expression ratio) gene yjaE,E. coli JM109 genes; 10 μg/mL asiatic acid,2.00
same,ER (expression ratio) gene yjiD,E. coli JM109 genes; 10 μg/mL asiatic acid,7.46
same,ER (expression ratio) gene yrbL,E. coli JM109 genes; 10 μg/mL asiatic acid,2.64
same,ER (expression ratio) gene b0829,E. coli JM109 genes; 30 μg/mL asiatic acid,2.46
same,ER (expression ratio) gene b1729,E. coli JM109 genes; 30 μg/mL asiatic acid,2.30
same,ER (expression ratio) gene b1963,E. coli JM109 genes; 30 μg/mL asiatic acid,2.30
same,ER (expression ratio) gene b2332,E. coli JM109 genes; 30 μg/mL asiatic acid,2.30
same,ER (expression ratio) gene b2420,E. coli JM109 genes; 30 μg/mL asiatic acid,2.14
same,ER (expression ratio) gene b2531,E. coli JM109 genes; 30 μg/mL asiatic acid,2.14
same,ER (expression ratio) gene b2670,E. coli JM109 genes; 30 μg/mL asiatic acid,2.64
same,ER (expression ratio) gene b2834,E. coli JM109 genes; 30 μg/mL asiatic acid,2.00
same,ER (expression ratio) gene bolA,E. coli JM109 genes; 30 μg/mL asiatic acid,2.64
same,ER (expression ratio) gene cbl,E. coli JM109 genes; 30 μg/mL asiatic acid,13.00
same,ER (expression ratio) gene cysA,E. coli JM109 genes; 30 μg/mL asiatic acid,3.48
same,ER (expression ratio) gene cysB,E. coli JM109 genes; 30 μg/mL asiatic acid,4.29
same,ER (expression ratio) gene cysC,E. coli JM109 genes; 30 μg/mL asiatic acid,6.96
same,ER (expression ratio) gene cysD,E. coli JM109 genes; 30 μg/mL asiatic acid,6.50
same,ER (expression ratio) gene cysH,E. coli JM109 genes; 30 μg/mL asiatic acid,3.03
same,ER (expression ratio) gene cysI,E. coli JM109 genes; 30 μg/mL asiatic acid,3.25
same,ER (expression ratio) gene cysJ,E. coli JM109 genes; 30 μg/mL asiatic acid,4.00
same,ER (expression ratio) gene cysK,E. coli JM109 genes; 30 μg/mL asiatic acid,3.48
same,ER (expression ratio) gene cysM,E. coli JM109 genes; 30 μg/mL asiatic acid,3.25
same,ER (expression ratio) gene cysN,E. coli JM109 genes; 30 μg/mL asiatic acid,7.46
same,ER (expression ratio) gene cysP,E. coli JM109 genes; 30 μg/mL asiatic acid,4.92
same,ER (expression ratio) gene cysU,E. coli JM109 genes; 30 μg/mL asiatic acid,4.92
same,ER (expression ratio) gene cysW,E. coli JM109 genes; 30 μg/mL asiatic acid,4.00
same,ER (expression ratio) gene dgt,E. coli JM109 genes; 30 μg/mL asiatic acid,2.30
same,ER (expression ratio) gene fliY,E. coli JM109 genes; 30 μg/mL asiatic acid,3.25
same,ER (expression ratio) gene ftn,E. coli JM109 genes; 30 μg/mL asiatic acid,3.03
same,ER (expression ratio) gene glgS,E. coli JM109 genes; 30 μg/mL asiatic acid,2.30
same,ER (expression ratio) gene iIvG_1,E. coli JM109 genes; 30 μg/mL asiatic acid,2.00
same,ER (expression ratio) gene iIvL,E. coli JM109 genes; 30 μg/mL asiatic acid,3.48
same,ER (expression ratio) gene msrA,E. coli JM109 genes; 30 μg/mL asiatic acid,2.64
same,ER (expression ratio) gene nlpA,E. coli JM109 genes; 30 μg/mL asiatic acid,9.85
same,ER (expression ratio) gene pssR,E. coli JM109 genes; 30 μg/mL asiatic acid,2.14
same,ER (expression ratio) gene pstS,E. coli JM109 genes; 30 μg/mL asiatic acid,2.00
same,ER (expression ratio) gene sbp,E. coli JM109 genes; 30 μg/mL asiatic acid,12.13
same,ER (expression ratio) gene tauA,E. coli JM109 genes; 30 μg/mL asiatic acid,2.00
same,ER (expression ratio) gene yaeG,E. coli JM109 genes; 30 μg/mL asiatic acid,4.00
same,ER (expression ratio) gene yaiB,E. coli JM109 genes; 30 μg/mL asiatic acid,2.64
same,ER (expression ratio) gene ybgR,E. coli JM109 genes; 30 μg/mL asiatic acid,2.46
same,ER (expression ratio) gene ybiK,E. coli JM109 genes; 30 μg/mL asiatic acid,5.66
same,ER (expression ratio) gene yciW,E. coli JM109 genes; 30 μg/mL asiatic acid,3.73
same,ER (expression ratio) gene yedO,E. coli JM109 genes; 30 μg/mL asiatic acid,2.83
same,ER (expression ratio) gene yeeD,E. coli JM109 genes; 30 μg/mL asiatic acid,2.30
same,ER (expression ratio) gene yeeE,E. coli JM109 genes; 30 μg/mL asiatic acid,2.14
same,ER (expression ratio) gene ygbE,E. coli JM109 genes; 30 μg/mL asiatic acid,5.28
same,ER (expression ratio) gene yicG,E. coli JM109 genes; 30 μg/mL asiatic acid,2.30
same,ER (expression ratio) gene yicL,E. coli JM109 genes; 30 μg/mL asiatic acid,2.83
same,ER (expression ratio) gene yjaE,E. coli JM109 genes; 30 μg/mL asiatic acid,2.14
same,ER (expression ratio) gene yjiD,E. coli JM109 genes; 30 μg/mL asiatic acid,9.85
same,ER (expression ratio) gene yrbL,E. coli JM109 genes; 30 μg/mL asiatic acid,2.46
same,inhibition at 5 µg/mL,E. coli JM109; 5 μg/ml,~75%
same,inhibition at 10 µg/mL,E. coli JM109; 10 μg/ml,~80%
same,inhibition at 15 µg/mL,E. coli JM109; 15 μg/ml,~85%
